Laboratory results from patent US20060035212A1, “Molecules inhibiting hepatitis c virus protein synthesis and method for screening same” (Universte Joseph Fourier, priority 2002, published 2006).
Entries after “also recorded” stand apart in the source; their conditions may differ. Read-outs that look alike come from different tables or passages of the source.

Tests used:
[1] = target: T1, p116 RRM/consensus sequence of region II of the HCV IRES complex (Homo sapiens, UniProt P55884); assay: In vitro screening assay: inhibition of binding of the RRM of p116 to the consensus sequence of region II of the IRES (nitrocellulose retention); design: species or system HCV (IRES RNA); eIF3 p116 RRM cDNA from HeLa cells; conditions: for inhibition of the formation of the RNA-protein complex (in words): 4 different concentrations tested
T1 construct: His6 (C); made in house; host or cells: E. coli BL21lysS
Protocol: (§1) Radiolabeled RNA fragments are obtained by in vitro transcription of the abovementioned templates in the presence of [α-32P]UTP. The RNA fragments are purified in a 6% acrylamide-urea gel and precipitated. The RNA pellets are taken up in 25 mM Tris-HCl, pH 7.4. In order to allow renaturation, the RNA was incubated at 65° C. in the abovementioned buffer for 5-7 min and then slowly cooled to ambient temperature. The renatured RNAs were incubated with increasing concentrations of protein in the same 25 mM Tris-HCl buffer, pH 7.4, at ambient temperature for 5 min.
The mixture of proteins and of RNA is then deposited onto a nitrocellulose membrane washed beforehand with the same buffer. The radioactivity of the filter containing the RNA-protein complexes was measured using a Trilux MicroBeta radioactivity counter (PerkinElmer). […]
The screening assay is carried out as follows. The RRM of p116 and the consensus sequence of region II are incubated in the presence of various aminoglycosides. The RNA mixture is then deposited onto a nitrocellulose membrane under the same conditions as in example 2.

[2] = test system: cap-controlled Renilla luciferase synthesis in HeLa cells; assay: Bicistronic construct in HeLa cells: cap-dependent translation, Renilla luciferase; assay type: cell-based; conditions: for cap-dependent synthesis, % of control: 2.5 μg of pDNA (FIG. 9C)
Protocol: (§2) Bicistronic constructs consisting of a first cistron corresponding to the Renilla luciferase gene, followed by the IRES sequence, followed by a second cistron corresponding to the Firefly luciferase gene (pRluc-IRES-Fluc) are prepared in the following way. A plasmid pRL-SV40 (Promega) is linearized with Xba I and dephosphorylated. In parallel, the IRES is amplified with the Firefly luciferase gene by PCR, in the presence of complementary oligonucleotides containing the Xba I sites. The PCR products are then subcloned in plasmid pTrcHis2-TOPO (Invitrogen) in order to control the digestion. The ligation of the insert containing the IRES with the Firefly luciferase gene and the linearized vector pRL-SV40 is carried out using T4 DNA ligase (Biolabs).
(§3) 10^7 HeLa cells suspended in serum-free DMEM are transfected with 1 to 2.5 μg of plasmid pRluc-IRES-Fluc by electroporation at […] for 30 milliseconds using a Gene Pulser (BioRad). […] The Renilla luciferase activity (cap-dependent translation) and that of the Firefly luciferase (cap-independent=viral translation) in the cell lysates is measured and compared by means of the Dual-luciferase assay (Promega) and of a Lumat LB9507 luminometer (Berthold).

[3] = test system: HCV IRES-controlled Firefly luciferase synthesis in HeLa cells; assay: Bicistronic construct in HeLa cells: IRES-dependent (cap-independent) translation, Firefly luciferase; assay type: cell-based; conditions: for inhibition at 2000 µM: 2 mM; for IRES specificity of translation inhibition (in words): IRES-dependent versus cap-dependent translation, HeLa cells
Protocol: as §2, §3

entire IRES of HCV = assay: Affinity of the RRM of p116 for the whole IRES by retention on nitrocellulose; assay type: binding; conditions: 25 mM Tris-HCl pH 7.4, read-out: apparent Kd
Protocol: as §1
The mixture of proteins and of RNA is then deposited onto a nitrocellulose membrane washed beforehand with the same buffer. The radioactivity of the filter containing the RNA-protein complexes was measured using a Trilux MicroBeta radioactivity counter (PerkinElmer).

[4] = concentrations of 1, 2 and 5 mM

## NC[C@H]1O[C@H](O[C@H]2[C@H](O)[C@@H](O[C@H]3O[C@H](CO)[C@@H](O)[C@H](N)[C@H]3O)[C@H](N)C[C@@H]2N)[C@H](N)C[C@@H]1O [tobramycin]
[1]; 20 μM
  inhibition at 20 µM: 43%
[1]; 40 μM
  inhibition at 40 µM: 54%
[1]
  inhibition of the formation of the RNA-protein complex (in words): inhibit the formation of the RNA-protein complex at all the concentrations tested; also recorded: capable of dissociating the p116/II complex in vitro, at all the concentrations tested
[2]; 1 mM, 1 μg of plasmid DNA (FIG. 9B)
  synthesis of the Renilla luciferase (cap-controlled), % of the control: 168 % of the control
[2]; 2 mM
  cap-dependent synthesis, % of control: 268 % of control
[2]; 5 mM
  cap-dependent synthesis, % of control: 134 % of control
[2]; Renilla, HeLa, 2 mM, 1 μg of plasmid DNA (FIG. 9B)
  inhibition at 2000 µM: 27%
[3]; Hepatitis C virus, HeLa, read-out: inhibition of the synthesis of the Firefly luciferase controlled by the IRES
  inhibition at 1000 µM: 90.4%
[3]; Hepatitis C virus, HeLa, 1 μg of plasmid DNA (FIG. 9B), read-out: inhibition of IRES-luciferase synthesis
  inhibition at 2000 µM: 83%
[3]; Hepatitis C virus, HeLa, 2.5 μg of pDNA (FIG. 9C), read-out: inhibition of the IRES-dependent translation
  inhibition at 2000 µM: 36.5%
[3]; Hepatitis C virus, HeLa, 5 mM, 2.5 μg of pDNA (FIG. 9C)
  inhibition at 5000 µM: 69%
[3]
  IRES specificity of translation inhibition (in words): the most specific inhibitor of the IRES-controlled translation

## NC[C@H]1O[C@H](O[C@H]2[C@H](O)[C@@H](O[C@H]3O[C@H](CO)[C@@H](O)[C@H](N)[C@H]3O)[C@H](N)C[C@@H]2N)[C@H](O)[C@@H](O)[C@@H]1O [kanamycin A]
[1]; 20 μM
  inhibition of the p116 RRM/II complex: 0%
[1]; 40 μM
  inhibition of the p116 RRM/II complex: 0%
[1]; 80 μM
  inhibition of the p116 RRM/II complex: 0%

## [H]/N=C(/N)N[C@H]1[C@H](O)[C@@H](O)[C@H](O[C@@H]2O[C@@H](C)[C@](O)(C=O)[C@H]2O[C@@H]2O[C@@H](CO)[C@H](O)[C@@H](O)[C@@H]2NC)[C@@H](N/C(N)=N\[H])[C@@H]1O [streptomycin]
[1]; 20 μM
  inhibition at 20 µM: 25%
[1]; 40 μM
  inhibition at 40 µM: 36%
[1]
  inhibition of the formation of the RNA-protein complex (in words): inhibit the formation of the RNA-protein complex at all the concentrations tested
[3]
  IRES specificity of translation inhibition (in words): inhibits the translation of the two cistrons in an IRES-nonspecific manner

## CN[C@@H]1[C@@H](O)[C@@H](O[C@@H]2[C@@H](O)[C@H](O[C@H]3O[C@H]([C@@H](C)O)[C@@H](O)[C@H](O)[C@H]3N)[C@@H](N)C[C@H]2N)OC[C@]1(C)O [G418]
[3]
  IRES specificity of translation inhibition (in words): inhibit both the cap-dependent and IRES-dependent translation in an IRES-nonspecific manner

## NC[C@H]1O[C@H](O[C@H]2[C@H](O)[C@@H](O[C@H]3O[C@H](CO)[C@@H](O)[C@H](N)[C@H]3O)[C@H](N)C[C@@H]2N)[C@H](N)[C@@H](O)[C@@H]1O [kanamycin B]
[1]; 20 μM
  inhibition of the p116 RRM/II complex: 22%

## NC[C@@H]1O[C@H](O[C@H]2[C@@H](O)[C@H](O[C@@H]3[C@@H](O)[C@H](N)C[C@H](N)[C@H]3O[C@H]3O[C@H](CO)[C@@H](O)[C@H](O)[C@H]3N)O[C@@H]2CO)[C@H](N)[C@@H](O)[C@@H]1O [paramomycin]
[2]; [4]
  inhibition of cap-dependent translation: 6.3%
[3]
  IRES specificity of translation inhibition (in words): moderately IRES-specific
[3]; [4]
  inhibition of IRES-dependent translation: 37%

B1: RRMp116: recombinant RNA recognition motif of the eIF3 p116 subunit (SEQ ID 5), C-terminal His6-Tag (protein)
chain: MDRPQEADGIDSVIVVDNVPQVGPDRLEKLKNVIHKIFSKFGKITNDFYPEEDGKTKGYIFLEYASPAHAVDAVKNADGYKLDKQHTFRVNLFTDFDKYMTISDEW
modifications: C-terminal His6 tag; p116 175..279 corresponds to a portion (RRM) of eIF3 p116 subunit
Entire IRES of HCV
  Kd: 800 nM
